This note sets out measurements from patent publication US8658350B2 (priority 2008, dated 2014).

Some results are limits rather than exact numbers.

This assay relates to CD8+ T cells. Type of assay: cell-based, human.

For the compound `CC(C)C[C@H](NC(=O)[C@H](Cc1ccc(O)cc1)NC(=O)[C@H](CO)NC(=O)[C@H](CCC(N)=O)NC(=O)[C@H](C)NC(=O)[C@@H](NC(=O)[C@@H]1CCCN1C(=O)[C@H](CO)NC(=O)[C@H](C)N)C(C)C)C(=O)O`, the “# SFU” value amounted to 210. Same read-out and setting: the same measure for `CSCC[C@H](NC(=O)[C@H](CCC(=O)O)NC(=O)[C@H](C)N)C(=O)N[C@@H](CCCCN)C(=O)N[C@H](C(=O)N[C@@H](CC(=O)O)C(=O)N[C@@H](C)C(=O)N[C@@H](C)C(=O)O)[C@@H](C)O`: 2458.

With `CC(C)[C@H](NC(=O)[C@H](Cc1ccccc1)NC(=O)[C@H](CCCNC(=N)N)NC(=O)[C@H](C)NC(=O)[C@H](Cc1c[nH]cn1)NC(=O)[C@H](C)NC(=O)[C@H](C)N)C(=O)N[C@@H](C)C(=O)N[C@@H](C)C(=O)O`, the “# SFU” value was 88.

On to `CC(C)[C@H](NC(=O)[C@H](C)NC(=O)[C@H](C)NC(=O)[C@H](CCC(N)=O)NC(=O)[C@H](C)NC(=O)[C@H](C)NC(=O)[C@@H](N)[C@@H](C)O)C(=O)N[C@H](C(=O)N[C@@H](CCCNC(=N)N)C(=O)N[C@@H](Cc1ccccc1)C(=O)O)C(C)C`, for which the “# SFU” value is reported as 258. Same read-out and setting: the result for ELPQWLSANR reads less than 10; that for `CC[C@H](C)[C@H](NC(=O)[C@@H](NC(=O)[C@H](C)N)C(C)C)C(=O)N[C@@H](CC(N)=O)C(=O)N[C@H](C(=O)N[C@H](C(=O)N[C@@H](CS)C(=O)N[C@@H](CC(N)=O)C(=O)N[C@@H](Cc1ccc(O)cc1)C(=O)NCC(=O)N[C@@H](CCC(N)=O)C(=O)O)[C@@H](C)O)[C@@H](C)O`, 24; that for `CSCC[C@H](NC(=O)[C@@H](N)CCC(=O)O)C(=O)N[C@@H](CCCCN)C(=O)N[C@H](C(=O)N[C@@H](CC(=O)O)C(=O)N[C@@H](C)C(=O)N[C@@H](C)C(=O)N[C@H](C(=O)N[C@@H](CC(C)C)C(=O)O)[C@@H](C)O)[C@@H](C)O`, 387. On the same count and under the same terms, the same measure for `CC[C@H](C)[C@H](NC(=O)[C@@H](N)CC(N)=O)C(=O)N[C@@H](CCCNC(=N)N)C(=O)N[C@@H](CCC(N)=O)C(=O)N[C@@H](C)C(=O)NCC(=O)N[C@H](C(=O)N[C@@H](CCC(N)=O)C(=O)N[C@@H](Cc1ccc(O)cc1)C(=O)O)C(C)C`: 1715; for RADEEQQQAL: 120; for `CC[C@H](C)[C@H](NC(=O)[C@H](Cc1c[nH]cn1)NC(=O)[C@H](C)NC(=O)[C@H](CC(=O)O)NC(=O)[C@H](CC(C)C)NC(=O)[C@@H](N)CC(C)C)C(=O)N1CCC[C@H]1C(=O)N[C@@H](CCC(N)=O)C(=O)N[C@@H](CC(C)C)C(=O)O`: less than 10. For the compound `CSCC[C@H](NC(=O)[C@H](CCC(=O)O)NC(=O)[C@H](C)N)C(=O)N[C@@H](CCCCN)C(=O)N[C@H](C(=O)N[C@@H](CC(=O)O)C(=O)N[C@@H](C)C(=O)N[C@@H](C)C(=O)N[C@H](C(=O)N[C@@H](CC(C)C)C(=O)N[C@@H](C)C(=O)O)[C@@H](C)O)[C@@H](C)O`, the “# SFU” value is 1993. Consider QTVEDEARRMW, for which the “#SFU/250,000 CD8+ T-cells” value is 84.
